≈ marks a conversion by molar mass, not a printed value. Where only a bound is given, the exact number is not on record here.

For orientation: MIC means the least concentration at which growth counts as inhibited. A high value points to a less susceptible organism. By MBC is commonly meant the smallest concentration meeting the test's criterion for killing. The low end stands for more potent killing, the high end for less potent killing. For orientation: MFC means the smallest concentration meeting the test's criterion for killing the fungus. A low value points to more potent killing.

Data set [1] concerns Vibrio vulnificus. Nature of the data set: Antibacterial activity against Vibrio vulnificus 204 incubated for 16 to 20 hrs. The format is functional. The note with it: time 16-20 hrs.
In data set [2] the test system is Klebsiella aerogenes. Description: Bactericidal activity against Enterobacter aerogenes incubated overnight. The format is functional.
Data set [3] has as its system Vibrio anguillarum. Nature of the data set: Bactericidal activity against Listonella anguillarum incubated overnight. The format is functional.
The subject of data set [4] is Vibrio harveyi. Nature of the data set: Bactericidal activity against Vibrio harveyi incubated overnight. The format is functional.
Data set [5] relates to Klebsiella pneumoniae. Nature of the data set: Antibacterial activity against NDM Klebsiella pneumoniae incubated for 16 to 20 hrs. The format is functional. As to conditions: time 16-20 hrs.
Data set [6] has as its system Vibrio vulnificus. Description: Antibacterial activity against Vibrio vulnificus V1 incubated for 16 to 20 hrs. The format is functional. As to conditions: time 16-20 hrs.
In data set [7] the test system is Vibrio alginolyticus. Description: Bactericidal activity against Vibrio alginolyticus incubated overnight. The format is functional.
The test system of data set [8] is Vibrio vulnificus. Description: Bactericidal activity against Vibrio vulnificus V3 incubated overnight. The format is functional.
The subject of data set [9] is Klebsiella aerogenes. Description: Antibacterial activity against Enterobacter aerogenes incubated for 16 to 20 hrs. Type of data set: functional. The note with it: time 16-20 hrs.
Data set [10] relates to Streptococcus iniae. Nature of the data set: Bactericidal activity against Streptococcus iniae incubated overnight. Type of data set: functional.
Data set [11] deals with Streptococcus iniae. Description: Antibacterial activity against Streptococcus iniae incubated for 16 to 20 hrs. The format is functional. The note with it: time 16-20 hrs.
Data set [12] relates to Pseudomonas aeruginosa. Nature of the data set: Bactericidal activity against Pseudomonas aeruginosa incubated overnight. Type of data set: functional.
Data set [13] concerns Klebsiella oxytoca. Nature of the data set: Bactericidal activity against Klebsiella oxytoca incubated overnight. The format is functional.
For data set [14], the system named is Enterococcus faecium. Nature of the data set: Bactericidal activity against Enterococcus faecium incubated overnight. Type of data set: functional.
For data set [15], the system named is Edwardsiella tarda. Description: Bactericidal activity against Edwardsiella tarda incubated overnight. The format is functional.
Data set [16] has as its system Escherichia coli. Description: Bactericidal activity against Escherichia coli incubated overnight. The format is functional.
Data set [17] deals with Vibrio alginolyticus. Nature of the data set: Antibacterial activity against Vibrio alginolyticus incubated for 16 to 20 hrs. The note with it: time 16-20 hrs. The format is functional.
For data set [18], the system named is Vibrio vulnificus. Description: Bactericidal activity against Vibrio vulnificus V2 incubated overnight. Type of data set: functional.
In data set [19] the test system is Klebsiella pneumoniae. Nature of the data set: Bactericidal activity against NDM Klebsiella pneumoniae incubated overnight. Type of data set: functional.
Data set [20] has as its system Streptococcus agalactiae. Nature of the data set: Bactericidal activity against Streptococcus agalactiae incubated overnight. Type of data set: functional.
Data set [21] has as its system Klebsiella oxytoca. Description: Antibacterial activity against Klebsiella oxytoca incubated for 16 to 20 hrs. Type of data set: functional. The note with it: time 16-20 hrs.
Data set [22] deals with Enterococcus faecium. Nature of the data set: Antibacterial activity against Enterococcus faecium incubated for 16 to 20 hrs. Type of data set: functional. As to conditions: time 16-20 hrs.
Data set [23] deals with Salmonella enterica. Nature of the data set: Bactericidal activity against Salmonella enterica incubated overnight. The format is functional.
The subject of data set [24] is Staphylococcus haemolyticus. Nature of the data set: Bactericidal activity against Staphylococcus haemolyticus incubated overnight. The format is functional.
Data set [25] concerns Vibrio anguillarum. Description: Antibacterial activity against Listonella anguillarum incubated for 16 to 20 hrs. Type of data set: functional. As to conditions: time 16-20 hrs.
Data set [26] concerns Salmonella typhimurium. Nature of the data set: Bactericidal activity against Salmonella typhimurium incubated overnight. Type of data set: functional, Salmonella enterica subsp. enterica serovar Typhimurium. The note with it: Salmonella enterica.
For data set [27], the system named is Candida tropicalis. Description: Fungicidal activity against Candida tropicalis incubated overnight. The format is functional.
The subject of data set [28] is Edwardsiella tarda. Description: Antibacterial activity against Edwardsiella tarda incubated for 16 to 20 hrs. The format is functional. The note with it: time 16-20 hrs.
Data set [29] concerns Salmonella typhimurium. Nature of the data set: Antibacterial activity against Salmonella typhimurium incubated for 16 to 20 hrs. Type of data set: functional, Salmonella enterica subsp. enterica serovar Typhimurium. As to conditions: Salmonella enterica; time 16-20 hrs.
Data set [30] has as its system Enterococcus faecalis. Description: Bactericidal activity against Enterococcus faecalis incubated overnight. The format is functional.
For data set [31], the system named is Vibrio harveyi. Nature of the data set: Antibacterial activity against Vibrio harveyi incubated for 16 to 20 hrs. As to conditions: time 16-20 hrs. Type of data set: functional.
Data set [32] concerns Salmonella enterica. Nature of the data set: Antibacterial activity against Salmonella enterica incubated for 16 to 20 hrs. Type of data set: functional. The note with it: time 16-20 hrs.
Data set [33] deals with Nakaseomyces glabratus. Description: Fungicidal activity against Candida glabrata incubated overnight. Type of data set: functional.
Data set [34] deals with Vibrio vulnificus. Nature of the data set: Bactericidal activity against Vibrio vulnificus V1 incubated overnight. The format is functional.
In data set [35] the test system is Vibrio vulnificus. Description: Antibacterial activity against Vibrio vulnificus V3 incubated for 16 to 20 hrs. The format is functional. The note with it: time 16-20 hrs.
The subject of data set [36] is Escherichia coli. Description: Antibacterial activity against Escherichia coli incubated for 16 to 20 hrs. The note with it: time 16-20 hrs. The format is functional.
In data set [37] the test system is Nakaseomyces glabratus. Nature of the data set: Antifungal activity against Candida glabrata incubated for 16 to 20 hrs. The note with it: time 16-20 hrs. The format is functional.
In data set [38] the test system is Pseudomonas aeruginosa. Description: Antibacterial activity against Pseudomonas aeruginosa incubated for 16 to 20 hrs. Type of data set: functional. As to conditions: time 16-20 hrs.
The test system of data set [39] is Staphylococcus haemolyticus. Nature of the data set: Antibacterial activity against Staphylococcus haemolyticus incubated for 16 to 20 hrs. The format is functional. As to conditions: time 16-20 hrs.
Data set [40] has as its system Enterococcus faecalis. Description: Antibacterial activity against Enterococcus faecalis incubated for 16 to 20 hrs. The format is functional. The note with it: time 16-20 hrs.
The subject of data set [41] is Streptococcus agalactiae. Nature of the data set: Antibacterial activity against Streptococcus agalactiae incubated for 16 to 20 hrs. Type of data set: functional. The note with it: time 16-20 hrs.
Data set [42] concerns Aeromonas hydrophila. Description: Antibacterial activity against Aeromonas hydrophila incubated for 16 to 20 hrs. The format is functional. As to conditions: time 16-20 hrs.
Data set [43] relates to Aeromonas hydrophila. Nature of the data set: Bactericidal activity against Aeromonas hydrophila incubated overnight. The format is functional.
The subject of data set [44] is Vibrio vulnificus. Nature of the data set: Antibacterial activity against Vibrio vulnificus V2 incubated for 16 to 20 hrs. As to conditions: time 16-20 hrs. The format is functional.
In data set [45] the test system is Candida tropicalis. Description: Antifungal activity against Candida tropicalis incubated for 16 to 20 hrs. The format is functional. As to conditions: time 16-20 hrs.
In data set [46] the test system is Vibrio vulnificus. Description: Bactericidal activity against Vibrio vulnificus 204 incubated overnight. Type of data set: functional.
The subject of data set [47] is Vibrio vulnificus. Description: Antibacterial activity against Vibrio vulnificus 204 assessed as induction of resistance development by measuring fold increase in MIC measured after 15 passages. Type of data set: functional.
The subject of data set [48] is Staphylococcus aureus. Nature of the data set: Bactericidal activity against Staphylococcus aureus incubated for overnight. Type of data set: functional.
The nature of data set [49]: Hemolytic activity in human RBC at 100 ug/ml incubated for 1 hr. The format is toxicity, cell-based, Erythrocyte. The note with it: human red blood cells (erythrocytes), at 100 µg/mL, read-out: Activity.
The test system of data set [50] is Acinetobacter baumannii. Nature of the data set: Bactericidal activity against Acinetobacter baumannii incubated for overnight. The format is functional.

On to `CC1(C)S[C@@H]2[C@H](NC(=O)[C@H](N)c3ccccc3)C(=O)N2[C@H]1C(=O)O` [AMPICILLIN], for which the MIC in [1] is over 100 µg/mL; in data set [5], over 100 µg/mL; in [6], 50 µg/mL (≈ 143 µM); in data set [9], 50 µg/mL (≈ 143 µM); in data set [11] it was 6.25 µg/mL (≈ 17.9 µM); in data set [17], over 100 µg/mL. Besides, the MIC in data set [21] was over 100 µg/mL; in data set [22], under 1.56 µg/mL; in [25], over 100 µg/mL; in data set [28], 3.12 µg/mL (≈ 8.94 µM); in data set [29], over 100 µg/mL; in [31] it was over 100 µg/mL. Besides, the MIC in data set [32] was 3.12 µg/mL (≈ 8.94 µM); in [35], 50 µg/mL (≈ 143 µM); in data set [36], 3.12 µg/mL (≈ 8.94 µM); in [37], over 100 µg/mL; in data set [38], over 100 µg/mL; in data set [39], under 1.56 µg/mL. In addition, the MIC in data set [40] was 100 µg/mL (≈ 286 µM); in data set [41], under 1.56 µg/mL; in data set [42] it was over 100 µg/mL; in [44] it was 50 µg/mL (≈ 143 µM); in data set [45], over 100 µg/mL. Besides, the MBC was 100 µg/mL (≈ 286 µM) in data set [2]; over 100 µg/mL in data set [3]; over 100 µg/mL in [4]; over 100 µg/mL in data set [7]; 50 µg/mL (≈ 143 µM) in data set [8]; 6.25 µg/mL (≈ 17.9 µM) in data set [10]. Also, the minimum bactericidal concentration (MBC) is over 100 µg/mL in data set [12]; over 100 µg/mL in data set [13]; under 1.56 µg/mL in data set [14]; 3.12 µg/mL (≈ 8.94 µM) in [15]; 6.25 µg/mL (≈ 17.9 µM) in data set [16]; 50 µg/mL (≈ 143 µM) in data set [18]. The minimal bactericidal concentration (MBC) is over 100 µg/mL in [19]; under 1.56 µg/mL in [20]; 6.25 µg/mL (≈ 17.9 µM) in data set [23]; under 1.56 µg/mL in data set [24]; over 100 µg/mL in data set [26]; over 100 µg/mL in data set [30]. Besides, the MBC is 50 µg/mL (≈ 143 µM) in data set [34], over 100 µg/mL in [43] and over 100 µg/mL in data set [46]. In addition, the minimum fungicidal concentration (MFC) in [27] and in data set [33] was over 100 µg/mL throughout.
Regarding `CN(C)[C@@H]1C(O)=C(C(N)=O)C(=O)[C@@]2(O)C(O)=C3C(=O)c4c(O)cccc4[C@@](C)(O)[C@H]3C[C@@H]12` [TETRACYCLINE], the “fold change (FC)” value in data set [47] came to 128.
Consider H-FDWDSVLKGVEGFVRGYF-OH, for which the MBC in data set [48] and in data set [50] was over 100 µg/mL each time. In addition, in data set [49], the hemolysis at 1 h, 100 ug/ml worked out at 15.2%.
Regarding H-FKDKSVLKIVDIFVDIYF-OH, the minimum bactericidal concentration (MBC) in data set [48] and in data set [50] was over 100 µg/mL each time. In addition, in data set [49], the hemolysis at 1 h, 100 ug/ml turned out to be 2.7%.
Consider H-FKDKSVLKIVKIFVDIYF-OH, for which the minimum bactericidal concentration (MBC) in data set [48] and in data set [50] was over 100 µg/mL each time. In addition, the hemolysis at 1 h, 100 ug/ml in [49] was 16.3%.
Consider H-FKDKSVLKIVKIFVKIYF-OH, for which the MBC in data set [48] and in data set [50] was over 100 µg/mL in each case. The hemolysis at 1 h, 100 ug/ml in data set [49] was 2.2%.
As to H-FKWKSVLKGVDGFVDGYF-OH, the MBC in data set [48] and in data set [50] was over 100 µg/mL in each case. Also, in [49], the hemolysis at 1 h, 100 ug/ml stood at 101%.
Take H-FKWKSVLKGVKGFVDGYF-OH: the MBC in data set [48] and in [50] was over 100 µg/mL in each case. For the same molecule, in [49], the hemolysis at 1 h, 100 ug/ml was 99.8%.
On to H-FKWKSVLKIVDIFVDIYF-OH, for which the minimum bactericidal concentration (MBC) in [48] and in data set [50] was over 100 µg/mL in each case. Also, the hemolysis at 1 h, 100 ug/ml in data set [49] stood at 67.8%.
H-FKWKSVLKIVKIFVDIYF-OH: the minimal bactericidal concentration (MBC) in [48] and in data set [50] was over 100 µg/mL in each case. In data set [49], the hemolysis at 1 h, 100 ug/ml was 48.1%.

The values are drawn from ChEMBL document CHEMBL5346873, “Strategic modification of low-activity natural antimicrobial peptides confers antibacterial potential in vitro and in vivo” (Eur J Med Chem, 2023).
